In patent publication US12064438B2, “Pharmaceutical preparation excellent in light stability and dissolution property” (priority 2017, dated 2024):

Columns and labels:
influenza virus [1] = assay: Clinical test: randomized, placebo-controlled, double-blind study, time to alleviation of influenza symptoms (10, 20, 40 mg); type: in vivo, human
influenza virus [2] = type: in vivo, human; settings: 20 to younger than 65 years old, Compound II-6 single 40 or 80 mg, Oseltamivir 75 mg twice a day for 5 days
[3] = for Adverse events the causal relationship of which cannot be denied, number of episodes: Compound II-6 610 patients, Oseltamivir 513 patients; for Adverse events the causal relationship of which cannot be denied, proportion of patients: Compound II-6 single 40 or 80 mg, Oseltamivir 75 mg twice a day for 5 days
Excerpt: The number of side-effect episodes and the number of patients with side effect were counted for each administration group.

[4] = single oral 20 mg, Cox proportional hazard model relative to placebo
[5] = single oral 40 mg, baseline symptom moderate or severe

| SMILES | Time until muscular or joint pain symptom is alleviated, Hazard ratio (influenza virus [1]; single oral 10 mg, Cox proportional hazard model relative to placebo) | Time to alleviation of influenza symptoms, Hazard ratio (influenza virus [1]; [4]) | Time until nasal congestion symptom is alleviated, Hazard ratio (influenza virus [1]; [4]) | median time until muscular or joint pain was improved, shorter in the 40 mg administered group than the placebo group (influenza virus [1]; single oral 40 mg) | median time until nasal congestion was improved, shorter in the 40 mg administered group than the placebo group (influenza virus [1]; single oral 40 mg) | Time until feverishness or chills symptom is alleviated, Hazard ratio (influenza virus [1]; single oral 40 mg, Cox proportional hazard model relative to placebo) | Time until muscular or joint pain symptom is alleviated, Difference from placebo (influenza virus [1]; [5]) | Time until nasal congestion symptom is alleviated, Difference from placebo (influenza virus [1]; [5]) | time to termination of viral shedding based on virus titer (influenza virus [2]) | Amount of change in virus titer from baseline, Mean (influenza virus [2]; Day 5) | Adverse events the causal relationship of which cannot be denied, number of episodes [3] | Adverse events the causal relationship of which cannot be denied, proportion of patients [3] | Severe adverse events the causal relationship of which cannot be denied ([3]; human, in vivo) |
| --- | --- | --- | --- | --- | --- | --- | --- | --- | --- | --- | --- | --- | --- |
| COC(=O)OCOc1c2n(ccc1=O)N([C@@H]1c3ccccc3SCc3c1ccc(F)c3F)[C@@H]1COCCN1C2=O [Compound II-6] | 0.77 | 0.81 | 0.59 | 16.4 h | 21.0 h | 0.71 | -16.4 h | -21 h | 24.0 h | −4.95 log10 [TCID50/mL] | 37 episodes | 4.4% | not reported |
| CCOC(=O)C1=C[C@@H](OC(CC)CC)[C@H](NC(C)=O)[C@@H](N)C1 [Oseltamivir, reference compound] |  |  |  |  |  |  |  |  | 72.0 h |  | 53 episodes | 8.4% |  |
